Experiments:
histaminergic receptors = details: background statement; cited from earlier work
[1] = system: dopaminergic (DA) receptors; details: background statement; cited from earlier work
[2] = system: patients with negative symptoms of schizophrenia; test: Integrated analysis (pooled ITT): PSP Total score; type: in vivo, human; parameters: key to PSP Total score, LS mean change from Baseline compared with placebo / PSP Total Score change from Baseline, Median: change in PSP Total score (scale 1-100, higher = better functioning); details: for PSP Total Score change from Baseline, LS mean (SE) / PSP Total Score change from Baseline, Mean (SD) / PSP Total Score change from Baseline, Median / PSP Total Score, Difference (95% CI) in LS mean (vs placebo): DB; for PSP Total Score change from Baseline, LS mean (SE) / PSP Total Score change from Baseline, Mean (SD) / PSP Total Score change from Baseline, Median / PSP Total Score, Difference (95% CI) in LS mean (vs placebo) / PSP Total score, LS mean change from Baseline compared with placebo: pooled ITT; for PSP Domain Disturbing and Aggressive Behavior, Change from Baseline (LS Means [SEM]) / PSP Domain Personal and Social Relationships, Change from Baseline (LS Means [SEM]) / PSP Domain Self-Care, Change from Baseline (LS Means [SEM]) / PSP Domain Socially Useful Activities, Change from Baseline (LS Means [SEM]) / PSP Total Score, Change from Baseline (LS Means [SEM]): ITT; for Patients with high improvement in PSP Total score (magnitude of change ≥10) / Patients with moderate improvement in PSP Total score (magnitude of change 7-9) / Patients with moderate or high improvement in PSP Total score, total: pooled; for Patients with 7-Point Improvement in PSP Total Score at Week 12, percent / Number of Patients with 7-Point improvement in PSP Total Score at Week 12: responder analysis; for Number of Patients with 7-Point improvement in PSP Total Score at Week 12: n/N
Source text: The primary integrated analysis of the efficacy of Roluperidone compared with placebo for the treatment of negative symptoms of schizophrenia is based on the change from Baseline in the PANSS Marder's negative symptoms factor score (in this document referred to as NSFS) to Week 12. Efficacy is also supported by the analysis of change from Baseline in the PSP Total score and the CGI-S to Week 12.
The PSP is a validated clinician-rated scale intended to reflect real-life situations that measures personal and social functioning in 4 domains: (a) socially useful activities, (b) personal and social relationships, (c) self-care, and (d) disturbing and aggressive behaviors. The score is based on the assessment of a patient's performance in the 4 domains. The PSP Total score is a single measurement of functioning ranging from 1 to 100, where a higher score represents better functioning. A score of 91 to 100 indicates excellent functioning in all 4 main areas; the patient is held in high consideration for their good qualities, copes adequately with life problems, and is involved in a wide range of interests and activities. A score of 1 to 10 indicates a lack of autonomy in basic functioning with extreme behaviors but without survival risk (score 6 to 10) or with survival risk (score 1 to 5). […] Review of the relevant scientific literature and the analysis of the psychometric properties of the 4 domains that result in the generation of the PSP Total score were supportive of the appropriateness and cross-cultural applicability of the use of the PSP in drug development for the indication of negative symptoms of schizophrenia The PSP was assessed at the timepoints described in Table 6. The changes from Baseline in the PSP Total score and individual domain scores after 12 weeks of treatment were exploratory efficacy endpoints in Study MIN-101C03, and the Total score was the key secondary efficacy endpoint and the PSP domain scores were exploratory endpoints in Study MIN-101C07.
(§1) The Efficacy data from Study Nos. 1 and 2 were pooled. The majority of patients in the pooled ITT population completed the DB period (502 patients overall, 66.3%), with similar rates in each treatment group (placebo: 69.8%, 32 mg Roluperidone: 65.3%, and 64 mg Roluperidone: 63.8%) (Table 12). The majority (62.7%) of those who completed the DB period entered the OL period. The most common reason for discontinuation during the DB period among patients overall was withdrawal of consent (15.6%), followed by adverse events (7.3%) and lack of efficacy (5.4%) (Table 12). […] Approximately twice as many patients in the Roluperidone groups (32 mg: 8.5%; 64 mg: 9.1%) discontinued due to adverse events compared with patients in the placebo group (4.3%). More patients in the placebo group discontinued due to lack of efficacy (6.7%) than in the Roluperidone groups (32 mg: 4.4%; 64 mg: 5.1%). The low number of patients who discontinued due to lack of efficacy or withdrawal of consent probably reflects a low level of worsening of positive symptoms.
The integrated analysis supporting the efficacy of Roluperidone as a treatment for the negative symptoms of schizophrenia in adults is presented below.

[3] = system: patients with negative symptoms of schizophrenia; test: Integrated analysis (pooled ITT): patient disposition, reasons for withdrawal; type: in vivo, human; details: for Withdrawn from double-blind period: Adverse event, % / Withdrawn from double-blind period: Death, % / Withdrawn from double-blind period: Lack of efficacy, %: DB
Protocol: as §1
A similar proportion of patients in each OL treatment group entered the OL period from the DB period (range: 61.3% to 65.6%) (Table 13). The most common reason for discontinuation in the OL period among patients was withdrawal of consent (93 patients, 12.3%), followed by adverse event (45 patients, 5.9%) and lack of efficacy (16 patients, 2.1%).

serotoninergic 5-HT2A = serotoninergic 5-HT2A (Homo sapiens, UniProt P28223); details: background statement; cited from earlier work
muscarinic receptors = details: background statement; cited from earlier work
[4] = Placebo in DB to 32 mg in OL (N = 128)
[5] = Placebo in DB to 64 mg in OL (N = 127)
[6] = Placebo in DB to Roluperidone in OL, Total (N = 255)
[7] = Roluperidone at Any Time 32 mg (N = 376)
[8] = Roluperidone at Any Time 64 mg (N = 381)

serotoninergic 5-HT2A, sequence (P28223 whole entry): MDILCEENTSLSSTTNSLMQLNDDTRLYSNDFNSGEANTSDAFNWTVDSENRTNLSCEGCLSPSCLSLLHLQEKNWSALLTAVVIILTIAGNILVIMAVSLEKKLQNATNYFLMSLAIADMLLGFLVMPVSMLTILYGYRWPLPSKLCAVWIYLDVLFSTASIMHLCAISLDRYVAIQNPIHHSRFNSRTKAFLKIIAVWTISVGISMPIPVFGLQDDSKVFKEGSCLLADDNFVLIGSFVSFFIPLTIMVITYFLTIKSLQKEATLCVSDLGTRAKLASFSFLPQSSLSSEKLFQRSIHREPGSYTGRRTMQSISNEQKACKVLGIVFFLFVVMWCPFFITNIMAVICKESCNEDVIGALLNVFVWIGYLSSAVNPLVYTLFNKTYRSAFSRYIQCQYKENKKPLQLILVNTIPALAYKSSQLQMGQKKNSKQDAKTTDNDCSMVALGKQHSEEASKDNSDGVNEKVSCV

1H-Isoindol-1-one,2-[ [1-[2-(4-fluorophenyl)-2-oxoethyl]-4-piperidinyl]methyl]-2,3-dihydro-, hydrochloride, hydrate (1:1:2) [Roluperidone]
Affinity (histaminergic receptors): very low or no affinity | Affinity [1]: very low or no affinity | PSP Total Score change from Baseline, LS mean (SE) ([2]; 32 mg, Week 4): 1.6 (0.52) | PSP Total Score change from Baseline, Mean (SD) ([2]; 32 mg, Week 4): 1.5 (7.87) | PSP Total Score change from Baseline, Median ([2]; 32 mg, Week 4): 0.0 | PSP Total Score, Difference (95% CI) in LS mean (vs placebo) ([2]; 32 mg, Week 4): 0.7 | PSP Total Score change from Baseline, LS mean (SE) ([2]; 32 mg, Week 8): 2.9 (0.62) | PSP Total Score change from Baseline, Mean (SD) ([2]; 32 mg, Week 8): 3.6 (7.04) | PSP Total Score change from Baseline, Median ([2]; 32 mg, Week 8): 2.0 | PSP Total Score, Difference (95% CI) in LS mean (vs placebo) ([2]; 32 mg, Week 8): 0.6 | PSP Total Score change from Baseline, LS mean (SE) ([2]; 32 mg, Week 12): 3.3 (0.71) | PSP Total Score change from Baseline, Mean (SD) ([2]; 32 mg, Week 12): 3.5 (10.03) | PSP Total Score change from Baseline, Median ([2]; 32 mg, Week 12): 2.0 | PSP Total Score, Difference (95% CI) in LS mean (vs placebo) ([2]; 32 mg, Week 12): 0.5 | PSP Domain Disturbing and Aggressive Behavior, Change from Baseline (LS Means [SEM]) ([2]; 32 mg, Week 12): −0.1 (0.04) | PSP Domain Personal and Social Relationships, Change from Baseline (LS Means [SEM]) ([2]; 32 mg, Week 12): −0.3 (0.05) | PSP Domain Self-Care, Change from Baseline (LS Means [SEM]) ([2]; 32 mg, Week 12): −0.3 (0.05) | PSP Domain Socially Useful Activities, Change from Baseline (LS Means [SEM]) ([2]; 32 mg, Week 12): −0.3 (0.05) | PSP Total Score, Change from Baseline (LS Means [SEM]) ([2]; 32 mg, Week 12): 3.3 (0.71) | PSP Total score, LS mean change from Baseline compared with placebo ([2]; 32 mg, Week 12): 0.5 | Patients with high improvement in PSP Total score (magnitude of change ≥10) ([2]; 32 mg): 26% | Patients with moderate improvement in PSP Total score (magnitude of change 7-9) ([2]; 32 mg): 7% | Patients with moderate or high improvement in PSP Total score, total ([2]; 32 mg): 33% | Patients with 7-Point Improvement in PSP Total Score at Week 12, percent ([2]; 32 mg): 33% | Number of Patients with 7-Point improvement in PSP Total Score at Week 12 ([2]; 32 mg): 54/166 | PSP Total Score change from Baseline, LS mean (SE) ([2]; 64 mg, Week 4): 3.1 (0.52) | PSP Total Score change from Baseline, Mean (SD) ([2]; 64 mg, Week 4): 3.1 (8.33) | PSP Total Score change from Baseline, Median ([2]; 64 mg, Week 4): 1.0 | PSP Total Score, Difference (95% CI) in LS mean (vs placebo) ([2]; 64 mg, Week 4): 2.1 | PSP Total Score change from Baseline, LS mean (SE) ([2]; 64 mg, Week 8): 4.9 (0.61) | PSP Total Score change from Baseline, Mean (SD) ([2]; 64 mg, Week 8): 4.8 (6.61) | PSP Total Score change from Baseline, Median ([2]; 64 mg, Week 8): 3.0 | PSP Total Score, Difference (95% CI) in LS mean (vs placebo) ([2]; 64 mg, Week 8): 2.6 | PSP Total Score change from Baseline, LS mean (SE) ([2]; 64 mg, Week 12): 6.4 (0.69) | PSP Total Score change from Baseline, Mean (SD) ([2]; 64 mg, Week 12): 6.4 (10.32) | PSP Total Score change from Baseline, Median ([2]; 64 mg, Week 12): 4.5 | PSP Total Score, Difference (95% CI) in LS mean (vs placebo) ([2]; 64 mg, Week 12): 3.6 | PSP Domain Disturbing and Aggressive Behavior, Change from Baseline (LS Means [SEM]) ([2]; 64 mg, Week 12): −0.0 (0.04) | PSP Domain Personal and Social Relationships, Change from Baseline (LS Means [SEM]) ([2]; 64 mg, Week 12): −0.4 (0.05) | PSP Domain Self-Care, Change from Baseline (LS Means [SEM]) ([2]; 64 mg, Week 12): −0.3 (0.05) | PSP Domain Socially Useful Activities, Change from Baseline (LS Means [SEM]) ([2]; 64 mg, Week 12): −0.4 (0.05) | PSP Total Score, Change from Baseline (LS Means [SEM]) ([2]; 64 mg, Week 12): 6.4 (0.69) | PSP Total score, LS mean change from Baseline compared with placebo ([2]; 64 mg, Week 12): 3.6 | Patients with high improvement in PSP Total score (magnitude of change ≥10) ([2]; 64 mg): 36% | Patients with moderate improvement in PSP Total score (magnitude of change 7-9) ([2]; 64 mg): 7% | Patients with moderate or high improvement in PSP Total score, total ([2]; 64 mg): 43% | Patients with 7-Point Improvement in PSP Total Score at Week 12, percent ([2]; 64 mg): 43% | Number of Patients with 7-Point improvement in PSP Total Score at Week 12 ([2]; 64 mg): 76/176 | PSP Total Score change from Baseline, Mean (SD) ([2]; Roluperidone Total, Week 4): 2.3 (8.14) | PSP Total Score change from Baseline, Median ([2]; Roluperidone Total, Week 4): 0.0 | PSP Total Score change from Baseline, Mean (SD) ([2]; Roluperidone Total, Week 8): 4.2 (6.84) | PSP Total Score change from Baseline, Median ([2]; Roluperidone Total, Week 8): 3.0 | PSP Total Score change from Baseline, Mean (SD) ([2]; Roluperidone Total, Week 12): 5.0 (10.27) | PSP Total Score change from Baseline, Median ([2]; Roluperidone Total, Week 12): 3.0 | Withdrawn from double-blind period: Adverse event, % ([3]; 32 mg (N = 248)): 8.5% | Withdrawn from double-blind period: Death, % ([3]; 32 mg (N = 248)): 0.4% | Withdrawn from double-blind period: Lack of efficacy, % ([3]; 32 mg (N = 248)): 4.4% | Withdrawn from double-blind period: Adverse event, % ([3]; 64 mg (N = 254)): 9.1% | Withdrawn from double-blind period: Lack of efficacy, % ([3]; 64 mg (N = 254)): 5.1% | Withdrawn from OL period: Adverse event, % [3, 4]: (6.3) % | Withdrawn from OL period: Lack of efficacy, % [3, 4]: (3.1) % | Withdrawn from OL period: Adverse event, % [3, 5]: (3.9) % | Withdrawn from OL period: Lack of efficacy, % [3, 5]: (1.6) % | Withdrawn from OL period: Adverse event, % [3, 6]: (5.1) % | Withdrawn from OL period: Lack of efficacy, % [3, 6]: (2.4) % | Withdrawn from double-blind period: Adverse event, % ([3]; Roluperidone Total (N = 502)): 8.8% | Withdrawn from double-blind period: Death, % ([3]; Roluperidone Total (N = 502)): 0.2% | Withdrawn from double-blind period: Lack of efficacy, % ([3]; Roluperidone Total (N = 502)): 4.8% | Withdrawn from OL period: Adverse event, % [3, 7]: (5.6) % | Withdrawn from OL period: Lack of efficacy, % [3, 7]: (2.1) % | Withdrawn from OL period: Adverse event, % [3, 8]: (6.3) % | Withdrawn from OL period: Lack of efficacy, % [3, 8]: (2.1) % | Antagonistic activity (serotoninergic 5-HT2A): antagonistic activities | Affinity (muscarinic receptors): very low or no affinity
